Experimental data: patent US7674612B2, “Infectious, chimeric hepatitis C virus, methods of producing the same and methods of use thereof” (The Rockefeller University, priority 2005, dated 2010)

How the values were obtained:
Format in all cases: cell-based, hepatitis C virus
HCVcc (FL-J6/JFH++) = assay: Drug inhibition of HCVcc RNA replication in infected Huh-7.5 cells (Taqman); conditions: 48 hour post-infection; Huh-7.5 cells infected with FL-J6/JFH++; HCVcc RNA by Taqman
Protocol: Parallel cultures of Huh-7.5 cells were infected with FL-J6/JFH++ for 6 hours. Following removal of the inocula, cells were washed with PBS and fed with complete growth medium containing the indicated concentrations of antiviral drugs or a DMSO carrier control. RNAs were extracted after 2 days and the amount of accumulated HCVcc RNA quantitated by Taqman.
A panel of experimental HCV antiviral compounds were examined for their ability to inhibit RNA replication at 48 hour post-infection with HCVcc. One of these compounds, 2′-C-methyladenosine (Merck) is a nucleoside analog that inhibits the HCV RNA polymerase. Three other compounds (PI-1, Vertex; BILN2061, Boerhinger Ingelheim; and SCH6, Schering-Plough) target the serine protease activity of NS3 by competitive binding. […] For the polymerase inhibitor, the higher specific activity is likely due to the fact that we measured the accumulation of nascent RNAs post-infection, whereas replicon-based assays examine the decay of RNA after inhibiting established replication. The reduced activities of the protease inhibitors likely reflect reduced affinities of these drugs, developed to genotype 1 proteases, to bind to the JFH NS3 protein.

HCVcc = assay: Effect of culture additives on HCVcc production (TCID50 assay)
Protocol: The procedure for immunohistochemical staining for NS5A has been adapted to determine the infectious virus concentration within samples. In one system, virus-containing samples were subjected to serial 10-fold dilutions (typically, 10^−1 to 10^−6) in complete growth medium. Each dilution was then used to infect multiple wells of Huh-7.5 cells seeded in 96-well plates. Following 2 or 3 day incubation, the cells are fixed and subjected to immunohistochemical staining for NS5A expression, as above. The assay plate was then scored for the number of infected wells (i.e. at least one infected cell per well) for each dilution (FIG. 3) and the virus titer was then calculated as the 50% end-point tissue-culture infectious dose per ml (TCID50/ml) according to the statistical method of Reed and Muench (Am. J. Hyg. 27:493-497 (1938)). The sensitivity of this assay was determined by volume of the lowest dilution and the number of replicates tested, and was typically 15.8 TCID50s/ml.
It was of interest to ascertain culturing conditions that increase the titer of infectious HCVcc. A large number of cell culture conditions were tested for their effect on HCVcc production. These included the choice of cell culture media, amount and type of fetal calf serum, as well as the addition of various additive compounds. […] For example, the following titers were recorded: 3.10×10^6 TCID50 (25 mM N-acetylcysteine) vs. 1.06×10^6 TCID50 (5 mM N-acetylcysteine) vs. 2.65×10^5 TCID50 (no N-acetylcysteine). Thus, the use of this compound in HCV-containing cell cultures permits a significant increase in yield of infectious HCVcc. Conditions have also been established for serum-free propagation of Huh-7.5 cells and HCVcc infection and production. These conditions include, but are not limited to, Dulbecco's Modified Eagle's Medium (DMEM)/F12 medium containing 10 μg/ml transferrin, 2 μg/ml insulin, 7.6 μM free fatty acids, 0.3 μM selenium, 0.1 μM hydrocortisone, 0.20% bovine serum albumin, and 20 ng/ml epidermal growth factor.

HCVcc (FL-J6/JFH) = assay: Blocking of HCVcc infection of naïve Huh-7.5 by soluble recombinant CD81 or CD9 (NS5A immunostaining); conditions: 10 μg/ml, 1 hour at 37° C., naïve Huh-7.5, day 3
Protocol: A) Independent samples of FL-J6/JFH++ (3.16×10^4 TCID50/ml) were mixed with the indicated amounts of recombinant human monoclonal antibodies (IgGl) against HCV E2 (open circles) or dengue-3 E proteins (filled triangle). Following a 1 hour incubation at 37° C., the virus titers of each sample were determined as described for FIG. 3. Shown are the average±s.d. of three independent samples. The amount of input virus is indicated by the dashed line. B) Samples of FL-J6/JFH were incubated for 1 hour at 37° C. with 10 μg/ml of soluble recombinant CD81 or CD9 and used to infect naïve Huh-7.5. Infections were monitored at day 3 by immunostaining as described in FIG. 2B. C). FL-J6/JFH was used to infect standard HepG2 cells or HepG2 cells engineered to express human CD81. Infections were monitored as described in FIG. 2B.
To further examine the role of E2 in HCVcc entry, virus was preincubated with a recombinant form of the large extracellular loop from CD81, which binds E2 and acts as a receptor for HCV. […] In addition, the role of CD81 in mediating HCVcc entry was examined by infecting HepG2 cells, which lack CD81 expression, or HepG2 cells that have been engineered to express human CD81.

C[C@@]1(O)[C@H](O)[C@@H](CO)O[C@H]1n1cnc2c(N)ncnc21 [2′-C-methyladenosine]
ability to inhibit RNA replication post-infection with HCVcc (HCVcc (FL-J6/JFH++)): inhibited HCVcc replication

COc1ccc2c(O[C@@H]3C[C@H]4C(=O)N[C@]5(C(=O)O)C[C@H]5/C=C\CCCCC[C@H](NC(=O)OC5CCCC5)C(=O)N4C3)cc(-c3csc(NC(C)C)n3)nc2c1 [BILN2061]
ability to inhibit RNA replication post-infection with HCVcc (HCVcc (FL-J6/JFH++)): inhibited HCVcc replication

CC(=O)N[C@@H](CS)C(=O)O [N-acetylcysteine]
HCVcc titer (HCVcc; 5 mM N-acetylcysteine in culture): 1.06×10^6 TCID50
HCVcc titer (HCVcc; 25 mM N-acetylcysteine in culture): 3.10×10^6 TCID50
levels of HCVcc as determined by TCID50 assay (HCVcc; additive in cell culture): consistently gave higher levels of HCVcc

B1: large extracellular loop of CD9: large extracellular loop of CD9, a related tetraspanin (control) (protein)
chain: SHKDEVIKEVQEFYKDTYNKLKTKDEPQRETLKAIHYALNCCGLAGGVEQFISDICPKKDVLETFTVKSCPDAIKEVFDNKFHI
HCVcc infection after preincubation of virus with recombinant protein (HCVcc (FL-J6/JFH)): did not

B2: recombinant form of the large extracellular loop from CD81: recombinant large extracellular loop of CD81, which binds E2 and acts as a receptor for HCV (protein)
chain: FVNKDQIAKDVKQFYDQALQQAVVDDDANNAKAVVKTFHETLDCCGSSTLTALTTSVLKNNLCPSGSNIISNLFKEDCHQKIDDLFSGK
HCVcc infection after preincubation of virus with recombinant protein (HCVcc (FL-J6/JFH)): blocked HCVcc infection
